The compounds below were run against purified recombinantly expressed human SSAO (Homo sapiens (Human), UniProt Q16853) (assay: SSAO enzyme inhibition assay (HRP-coupled Amplex Red, benzylamine substrate)). Conditions: benzylamine 100 μM, approximately 60 minutes pre-incubation, pH 7.4, room temperature.
Type: biochemical
Procedure: Biological Assay of the SSAO Enzyme Inhibitors
All assays were performed in room temperature with purified recombinantly expressed human SSAO. Enzyme was prepared essentially as described in Ohman et al. (Protein Expression and Purification 2006, 46, 321-331). The enzyme activity was measured with benzylamine as substrate and utilized the production of hydrogen peroxide for detection. In a horseradish peroxidise (HRP) coupled reaction, hydrogen peroxide oxidation of 10-acetyl-3,7-dihydroxyphenoxazine produced resorufin, which is a highly fluorescent compound (Zhout and Panchuk-Voloshina. Analytical Biochemistry 1997, 253, 169-174; Amplex® Red Hydrogen Peroxide/peroxidise Assay kit, Invitrogen A22188).
Briefly, test compounds were dissolved in dimethyl sulfoxide (DMSO) to a concentration of 10 mM. Dose-response measurements were assayed by either creating 1:10 serial dilutions in DMSO to produce a 7 point curve or by making 1:3 serial dilutions in DMSO to produce 11 point curves. The top concentrations were adjusted depending on the potency of the compounds and subsequent dilution in reaction buffer (50 mM sodium phosphate, pH 7.4) yielded a final DMSO concentration≦2%. Enzyme and compounds were set to pre-incubate in flat-bottomed microtiter plates for approximately 60 minutes before initiating the reaction by addition of a mixture of HRP, benzylamine and Amplex reagent. Fluorescence intensity was then measured at several time points (15 minutes, 20 minutes and 30 minutes) exciting at 544 nm and reading the emission at 590 nm). Final concentrations of the reagents in the assay wells were: SSAO enzyme 2 μg/ml, benzylamine 100 μM, Amplex reagent 20 μM, HRP 0.1 U/mL and varying concentrations of test compound. The inhibition was measured as % decrease of the signal compared to a control without inhibitor (only diluted DMSO). The background signal from a sample containing no SSAO enzyme was subtracted from all data points. Data was fitted to a four parameter logistic model and IC50 values were calculated using the GraphPad Prism 4 or XLfit 4 programs.

Chain of purified recombinantly expressed human SSAO (Q16853 29-763): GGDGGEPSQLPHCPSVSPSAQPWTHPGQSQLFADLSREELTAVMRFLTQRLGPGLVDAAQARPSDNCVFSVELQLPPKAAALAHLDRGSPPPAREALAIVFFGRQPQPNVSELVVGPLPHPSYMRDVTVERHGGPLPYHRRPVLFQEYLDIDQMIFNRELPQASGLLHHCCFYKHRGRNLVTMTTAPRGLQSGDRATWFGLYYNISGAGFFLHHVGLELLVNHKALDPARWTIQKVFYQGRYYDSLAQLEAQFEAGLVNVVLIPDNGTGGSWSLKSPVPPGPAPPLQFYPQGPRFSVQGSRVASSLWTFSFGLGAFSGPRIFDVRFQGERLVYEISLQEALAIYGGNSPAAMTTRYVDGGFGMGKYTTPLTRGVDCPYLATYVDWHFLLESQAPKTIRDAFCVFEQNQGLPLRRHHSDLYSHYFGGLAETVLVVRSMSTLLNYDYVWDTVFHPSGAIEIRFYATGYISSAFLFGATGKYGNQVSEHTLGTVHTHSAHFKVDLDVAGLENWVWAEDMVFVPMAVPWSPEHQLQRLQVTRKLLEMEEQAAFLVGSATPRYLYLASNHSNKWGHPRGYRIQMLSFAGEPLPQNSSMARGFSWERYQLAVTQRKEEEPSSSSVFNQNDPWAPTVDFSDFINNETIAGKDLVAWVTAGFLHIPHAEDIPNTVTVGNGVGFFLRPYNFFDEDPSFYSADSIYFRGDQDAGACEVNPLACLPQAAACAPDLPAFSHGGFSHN

| IC50 | SMILES |
| --- | --- |
| 34 nM | CC(C)C1c2[nH]cnc2CCN1C(=O)OCc1cccnc1 (stereo not drawn) [Example 7, Pyridin-3-ylmethyl 4-isopropyl-1,4,6,7-tetrahydro-5H-imidazo[4,5-c]pyridine-5-carboxylate] |
| 48 nM | CC(C)C1c2[nH]cnc2CCN1C(=O)OCCOc1ccccc1 (stereo not drawn) [Example 14, 2-Phenoxyethyl 4-isopropyl-1,4,6,7-tetrahydro-5H-imidazo[4,5-c]pyridine-5-carboxylate] |
| 91 nM | CC(C)C1c2[nH]cnc2CCN1C(=O)OCC1CCOC1 (stereo not drawn) [Example 17, Tetrahydrofuran-3-ylmethyl 4-isopropyl-1,4,6,7-tetrahydro-5H-imidazo[4,5-c]-pyridine-5-carboxylate] |
